Results as given in article PMC9186362, “Design and biological evaluation of substituted 5,7-dihydro-6H-indolo[2,3-c]quinolin-6-one as novel selective Haspin inhibitors” (Journal of Enzyme Inhibition and Medicinal Chemistry, 2022).

What was measured:
TESK1 = TESK1 (Homo sapiens, UniProt Q15569); assay: LanthaScreen Binding - Eu-anti-GST; conditions: read-out: Percentage of inhibition
Outline: (§1)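 In a large-scale selectivity screen, each kinase was exposed to the inhibitor at 1 μM, and the read-out was expressed as percentage inhibition.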

MYO3B (MYO3 beta) = target: T1, MYO3B (MYO3 beta) (Homo sapiens, UniProt Q8WXR4); assay: LanthaScreen Binding - Eu-anti-GST; conditions: read-out: Percentage of inhibition
T1 construct: purchased Life Technologies (SelectScreen Whole Panel)
Outline: as §1

WEE1 = target: T2, WEE1 (Homo sapiens, UniProt P30291); assay: LanthaScreen Binding - Eu-anti-GST; conditions: read-out: Percentage of inhibition
T2 construct: purchased Life Technologies (SelectScreen Whole Panel service)
Outline: as §1

DDR2 = target: T3, DDR2 (Homo sapiens, UniProt Q16832); assay: LanthaScreen Binding - Eu-anti-GST; conditions: read-out: Percentage of inhibition
T3 construct: purchased Life Technologies
Outline: as §1

CDK13/cyclin K = target: T4, CDK13/cyclin K (Homo sapiens, UniProt Q14004); assay: LanthaScreen Binding - Eu-anti-GST; conditions: read-out: Percentage of inhibition
T4 construct: purchased Life Technologies (SelectScreen Whole Panel service)
Outline: as §1

TEK (TIE2) R849W = target: T5, TEK (TIE2) R849W (Homo sapiens, UniProt Q02763, R849W); assay: LanthaScreen Binding - Eu-anti-GST; conditions: read-out: Percentage of inhibition
T5 construct: purchased Life Technologies (SelectScreen Whole Panel service)
T5 sequence (Q02763 23-1124 R849W): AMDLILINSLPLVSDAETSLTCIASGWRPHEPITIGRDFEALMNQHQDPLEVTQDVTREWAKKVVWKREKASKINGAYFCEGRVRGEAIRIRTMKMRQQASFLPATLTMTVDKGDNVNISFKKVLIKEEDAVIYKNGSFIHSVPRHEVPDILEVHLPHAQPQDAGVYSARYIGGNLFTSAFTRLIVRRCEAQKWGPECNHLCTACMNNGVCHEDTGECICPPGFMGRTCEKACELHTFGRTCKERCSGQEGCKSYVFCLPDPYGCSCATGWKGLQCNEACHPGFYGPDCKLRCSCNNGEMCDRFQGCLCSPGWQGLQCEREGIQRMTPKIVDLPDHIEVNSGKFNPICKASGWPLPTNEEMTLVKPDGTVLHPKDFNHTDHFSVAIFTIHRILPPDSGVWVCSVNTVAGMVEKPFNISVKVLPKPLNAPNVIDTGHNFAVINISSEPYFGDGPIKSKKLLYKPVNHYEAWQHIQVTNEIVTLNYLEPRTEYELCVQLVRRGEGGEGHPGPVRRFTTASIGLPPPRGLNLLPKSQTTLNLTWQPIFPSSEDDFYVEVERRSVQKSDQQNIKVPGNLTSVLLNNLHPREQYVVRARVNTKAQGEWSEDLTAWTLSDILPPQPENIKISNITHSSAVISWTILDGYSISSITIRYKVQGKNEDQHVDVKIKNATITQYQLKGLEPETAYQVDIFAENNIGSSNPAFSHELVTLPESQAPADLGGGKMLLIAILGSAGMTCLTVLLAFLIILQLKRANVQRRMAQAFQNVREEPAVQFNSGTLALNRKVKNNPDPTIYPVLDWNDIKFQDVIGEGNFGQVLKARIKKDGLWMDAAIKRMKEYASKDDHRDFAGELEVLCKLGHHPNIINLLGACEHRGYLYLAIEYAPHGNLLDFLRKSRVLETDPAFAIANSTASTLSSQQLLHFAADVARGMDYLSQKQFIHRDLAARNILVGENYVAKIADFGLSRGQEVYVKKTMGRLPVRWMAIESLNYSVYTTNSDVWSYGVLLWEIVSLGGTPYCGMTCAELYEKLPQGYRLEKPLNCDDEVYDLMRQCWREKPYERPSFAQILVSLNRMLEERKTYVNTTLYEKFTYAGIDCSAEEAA
Outline: as §1

MYLK4 = target: T6, MYLK4 (Homo sapiens, UniProt Q86YV6); assay: LanthaScreen Binding - Eu-anti-GST; conditions: read-out: Percentage of inhibition
T6 construct: purchased Life Technologies (SelectScreen Whole Panel)
Outline: as §1

ANKK1 = target: T7, ANKK1 (Homo sapiens, UniProt Q8NFD2); assay: LanthaScreen Binding - Eu-anti-GST; conditions: read-out: Percentage of inhibition
T7 construct: purchased Life Technologies (SelectScreen service)
Outline: as §1

MASTL = target: T8, MASTL (Homo sapiens, UniProt Q96GX5); assay: LanthaScreen Binding - Eu-anti-GST; conditions: read-out: Percentage of inhibition
T8 construct: purchased Life Technologies (SelectScreen Whole Panel)
Outline: as §1

ADCK3 = ADCK3 (Homo sapiens, UniProt Q8NI60); assay: LanthaScreen Binding - Eu-anti-GST; conditions: read-out: Percentage of inhibition
Chain of ADCK3 (Q8NI60 163-647): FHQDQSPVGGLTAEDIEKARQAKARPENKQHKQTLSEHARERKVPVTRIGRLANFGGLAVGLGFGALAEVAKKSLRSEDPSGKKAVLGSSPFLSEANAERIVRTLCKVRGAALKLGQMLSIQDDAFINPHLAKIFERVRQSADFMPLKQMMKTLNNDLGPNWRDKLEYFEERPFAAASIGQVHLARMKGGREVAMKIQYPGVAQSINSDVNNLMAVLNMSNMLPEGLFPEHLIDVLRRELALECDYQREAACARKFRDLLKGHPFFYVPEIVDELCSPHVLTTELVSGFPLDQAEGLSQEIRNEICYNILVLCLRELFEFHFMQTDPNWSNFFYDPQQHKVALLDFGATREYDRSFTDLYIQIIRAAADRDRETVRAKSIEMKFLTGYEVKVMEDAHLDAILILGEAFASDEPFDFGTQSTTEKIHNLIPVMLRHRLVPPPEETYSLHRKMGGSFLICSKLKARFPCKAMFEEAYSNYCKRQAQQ
Outline: as §1

EGFR (ErbB1) d746-750 = target: T9, EGFR (ErbB1) d746-750 (Homo sapiens, UniProt P00533, DEL746-750); assay: LanthaScreen Binding - Eu-anti-GST; conditions: read-out: Percentage of inhibition
T9 construct: purchased Life Technologies
T9 sequence (P00533 with tags, fused parts or gaps DEL746-750 limits assumed): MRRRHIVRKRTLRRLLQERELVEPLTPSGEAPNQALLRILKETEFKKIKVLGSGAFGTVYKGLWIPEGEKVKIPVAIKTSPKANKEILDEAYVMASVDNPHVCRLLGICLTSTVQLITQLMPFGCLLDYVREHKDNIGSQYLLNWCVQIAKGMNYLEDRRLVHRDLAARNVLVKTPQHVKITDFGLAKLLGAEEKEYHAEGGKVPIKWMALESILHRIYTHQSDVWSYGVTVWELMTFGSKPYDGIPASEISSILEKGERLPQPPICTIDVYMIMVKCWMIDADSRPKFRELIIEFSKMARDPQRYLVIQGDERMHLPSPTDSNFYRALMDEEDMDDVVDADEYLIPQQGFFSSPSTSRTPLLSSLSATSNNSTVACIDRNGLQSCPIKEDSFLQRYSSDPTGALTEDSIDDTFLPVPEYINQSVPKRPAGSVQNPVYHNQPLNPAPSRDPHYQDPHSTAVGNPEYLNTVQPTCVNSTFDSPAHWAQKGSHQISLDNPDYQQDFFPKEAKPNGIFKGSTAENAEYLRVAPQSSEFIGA
Outline: as §1

FGFR1 V561M = FGFR1 V561M (Homo sapiens, UniProt P11362, V561M); assay: LanthaScreen Binding - Eu-anti-GST; conditions: read-out: Percentage of inhibition
Outline: as §1

ULK1 = target: T10, ULK1 (Homo sapiens, UniProt O75385); assay: LanthaScreen Binding - Eu-anti-GST; conditions: read-out: Percentage of inhibition
T10 construct: purchased Life Technologies
Outline: as §1

DDR2 N456S = target: T11, DDR2 N456S (Homo sapiens, UniProt Q16832, N456S); assay: LanthaScreen Binding - Eu-anti-GST; conditions: read-out: Percentage of inhibition
T11 construct: purchased Life Technologies
Outline: as §1

KIT D816V = target: T12, KIT D816V (Homo sapiens, UniProt P10721, D816V); assay: LanthaScreen Binding - Eu-anti-GST; conditions: read-out: Percentage of inhibition
T12 construct: purchased Life Technologies (SelectScreen service)
Outline: as §1

ERN2 = target: T13, ERN2 (Homo sapiens, UniProt Q76MJ5); assay: LanthaScreen Binding - Eu-anti-GST; conditions: read-out: Percentage of inhibition
T13 construct: purchased Life Technologies (SelectScreen)
T13 sequence (Q76MJ5 35-926): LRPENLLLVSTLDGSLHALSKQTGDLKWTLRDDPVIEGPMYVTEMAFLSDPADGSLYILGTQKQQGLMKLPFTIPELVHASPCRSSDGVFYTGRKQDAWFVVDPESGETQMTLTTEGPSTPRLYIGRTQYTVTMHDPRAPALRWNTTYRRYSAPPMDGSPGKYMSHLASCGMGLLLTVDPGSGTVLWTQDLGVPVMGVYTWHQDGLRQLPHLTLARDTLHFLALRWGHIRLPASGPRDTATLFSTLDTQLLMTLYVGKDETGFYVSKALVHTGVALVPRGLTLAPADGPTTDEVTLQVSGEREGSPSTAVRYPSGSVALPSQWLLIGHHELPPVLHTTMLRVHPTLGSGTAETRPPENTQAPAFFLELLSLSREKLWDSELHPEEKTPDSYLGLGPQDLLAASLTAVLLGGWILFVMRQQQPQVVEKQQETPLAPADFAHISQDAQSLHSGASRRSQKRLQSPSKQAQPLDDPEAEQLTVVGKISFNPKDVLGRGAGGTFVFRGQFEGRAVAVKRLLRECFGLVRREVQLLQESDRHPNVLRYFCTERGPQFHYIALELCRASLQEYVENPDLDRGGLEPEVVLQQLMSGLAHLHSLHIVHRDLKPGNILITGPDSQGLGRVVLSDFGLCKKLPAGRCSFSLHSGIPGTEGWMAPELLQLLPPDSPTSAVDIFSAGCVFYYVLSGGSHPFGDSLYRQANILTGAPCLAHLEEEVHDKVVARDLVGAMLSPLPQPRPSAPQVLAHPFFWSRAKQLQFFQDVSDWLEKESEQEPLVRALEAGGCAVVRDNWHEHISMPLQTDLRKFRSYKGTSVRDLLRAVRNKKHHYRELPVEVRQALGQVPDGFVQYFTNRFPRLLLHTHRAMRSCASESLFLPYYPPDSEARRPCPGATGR
Outline: as §1

TEK (TIE2) Y1108F = TEK (TIE2) Y1108F (Homo sapiens, UniProt Q02763, Y1108F); assay: LanthaScreen Binding - Eu-anti-GST; conditions: read-out: Percentage of inhibition
Chain of TEK (TIE2) Y1108F (Q02763 23-1124 Y1108F): as the sequence (Q02763 23-1124 R849W) above, with W827R, Y1086F counted along it
Outline: as §1

CDK11/cyclin C = target: T14, CDK11/cyclin C (Homo sapiens, UniProt Q9BWU1); assay: LanthaScreen Binding - Eu-anti-GST; conditions: read-out: Percentage of inhibition
T14 construct: purchased Life Technologies
Outline: as §1

CDK3/cyclin E1 = target: T15, CDK3/cyclin E1 (Homo sapiens, UniProt Q00526); assay: LanthaScreen Binding - Eu-anti-GST; conditions: read-out: Percentage of inhibition
T15 construct: purchased Life Technologies (SelectScreen Whole Panel)
Outline: as §1

ACVR1 (ALK2) R206H = ACVR1 (ALK2) R206H (Homo sapiens, UniProt Q04771, R206H); assay: LanthaScreen Binding - Eu-anti-GST; conditions: read-out: Percentage of inhibition
Chain of ACVR1 (ALK2) R206H (Q04771 21-509 R206H): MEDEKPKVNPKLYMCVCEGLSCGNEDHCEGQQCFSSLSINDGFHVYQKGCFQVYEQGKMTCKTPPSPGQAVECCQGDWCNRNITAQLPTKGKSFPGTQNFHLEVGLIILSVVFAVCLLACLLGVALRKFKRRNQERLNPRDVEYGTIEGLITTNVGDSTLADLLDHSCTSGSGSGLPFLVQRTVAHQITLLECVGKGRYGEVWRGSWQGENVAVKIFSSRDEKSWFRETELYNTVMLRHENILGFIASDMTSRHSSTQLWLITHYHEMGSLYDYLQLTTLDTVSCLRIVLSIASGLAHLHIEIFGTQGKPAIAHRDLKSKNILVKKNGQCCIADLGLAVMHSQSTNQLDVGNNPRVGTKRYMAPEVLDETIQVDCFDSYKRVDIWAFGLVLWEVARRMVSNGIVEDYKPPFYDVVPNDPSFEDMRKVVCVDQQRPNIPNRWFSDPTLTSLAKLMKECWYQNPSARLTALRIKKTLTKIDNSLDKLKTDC
Outline: as §1

RET G691S = target: T16, RET G691S (Homo sapiens, UniProt P07949, G691S); assay: LanthaScreen Binding - Eu-anti-GST; conditions: read-out: Percentage of inhibition
T16 construct: purchased Life Technologies (SelectScreen service)
Outline: as §1

GAK = target: T17, GAK (Homo sapiens, UniProt O14976); assay: LanthaScreen Binding - Eu-anti-GST; conditions: read-out: Percentage of inhibition
T17 construct: purchased Life Technologies (SelectScreen service)
Outline: as §1

BMPR1B (ALK6) = target: T18, BMPR1B (ALK6) (Homo sapiens, UniProt O00238); assay: LanthaScreen Binding - Eu-anti-GST; conditions: read-out: Percentage of inhibition
T18 construct: purchased Life Technologies (SelectScreen)
Outline: as §1

AAK1 = target: T19, AAK1 (Homo sapiens, UniProt Q2M2I8); assay: LanthaScreen Binding - Eu-anti-GST; conditions: read-out: Percentage of inhibition
T19 construct: purchased Life Technologies
Outline: as §1

NLK = target: T20, NLK (Homo sapiens, UniProt Q9UBE8); assay: LanthaScreen Binding - Eu-anti-GST; conditions: read-out: Percentage of inhibition
T20 construct: purchased Life Technologies (SelectScreen Whole Panel service)
Outline: as §1

TGFBR1 (ALK5) = target: T21, TGFBR1 (ALK5) (Homo sapiens, UniProt P36897); assay: LanthaScreen Binding - Eu-anti-GST; conditions: read-out: Percentage of inhibition
T21 construct: purchased Life Technologies (SelectScreen Whole Panel service)
Outline: as §1

ABL1 F317I = ABL1 F317I (Homo sapiens, UniProt P00519, F317I); assay: SelectScreen ZLYTE; assay type: biochemical; conditions: ATP Km, read-out: Percentage of inhibition
Description: (§2) We further evaluated the selectivity profile of compound 55 on a larger panel of kinases (SelectScreen Whole Panel, Life Technologies). The inhibition profile of 55, evaluated at 1 μM, is depicted on a dendrogram on Figure 3 where kinases inhibited by a minimum of 80% are shown. A full list of the kinases tested is shown on Table S1 in supplementary information.

MAPK1 (ERK2) = MAPK1 (ERK2) (Homo sapiens, UniProt P28482); assay: SelectScreen ZLYTE; assay type: biochemical; conditions: ATP Km, read-out: Percentage of inhibition
Chain of MAPK1 (ERK2) (P28482 whole entry): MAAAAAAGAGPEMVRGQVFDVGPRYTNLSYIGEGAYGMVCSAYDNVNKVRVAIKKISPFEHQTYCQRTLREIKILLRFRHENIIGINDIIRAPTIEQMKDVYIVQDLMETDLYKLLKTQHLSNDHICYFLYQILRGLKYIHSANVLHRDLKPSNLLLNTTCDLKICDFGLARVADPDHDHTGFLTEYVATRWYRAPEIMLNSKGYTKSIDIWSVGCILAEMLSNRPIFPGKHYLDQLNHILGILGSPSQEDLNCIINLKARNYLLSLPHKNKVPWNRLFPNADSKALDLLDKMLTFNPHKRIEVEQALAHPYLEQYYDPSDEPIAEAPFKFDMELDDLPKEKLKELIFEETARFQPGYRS
Description: as §2

DCAMKL2 (DCK2) = DCAMKL2 (DCK2) (Homo sapiens, UniProt Q8N568); assay: SelectScreen ZLYTE; assay type: biochemical; conditions: ATP Km, read-out: Percentage of inhibition
Description: as §2

RET S891A = target: T22, RET S891A (Homo sapiens, UniProt P07949, S891A); assay: SelectScreen ZLYTE; assay type: biochemical; conditions: ATP Km, read-out: Percentage of inhibition
T22 construct: purchased Life Technologies
Description: as §2

EGFR (ErbB1) L858R = target: T23, EGFR (ErbB1) L858R (Homo sapiens, UniProt P00533, L858R); assay: SelectScreen ZLYTE; assay type: biochemical; conditions: ATP Km, read-out: Percentage of inhibition
T23 construct: purchased Life Technologies (SelectScreen Whole Panel)
Description: as §2

ERBB2 (HER2) = target: T24, ERBB2 (HER2) (Homo sapiens, UniProt P04626); assay: SelectScreen ZLYTE; assay type: biochemical; conditions: ATP Km, read-out: Percentage of inhibition
T24 construct: purchased Life Technologies
Description: as §2

CSNK2A1 (CK2 alpha 1) = CSNK2A1 (CK2 alpha 1) (Homo sapiens, UniProt P68400); assay: SelectScreen ZLYTE; assay type: biochemical; conditions: ATP Km, read-out: Percentage of inhibition
Description: as §2

JAK2 = target: T25, JAK2 (Homo sapiens, UniProt O60674); assay: SelectScreen ZLYTE; assay type: biochemical; conditions: ATP Km, read-out: Percentage of inhibition
T25 construct: purchased Life Technologies (SelectScreen Whole Panel)
T25 sequence (O60674 whole entry): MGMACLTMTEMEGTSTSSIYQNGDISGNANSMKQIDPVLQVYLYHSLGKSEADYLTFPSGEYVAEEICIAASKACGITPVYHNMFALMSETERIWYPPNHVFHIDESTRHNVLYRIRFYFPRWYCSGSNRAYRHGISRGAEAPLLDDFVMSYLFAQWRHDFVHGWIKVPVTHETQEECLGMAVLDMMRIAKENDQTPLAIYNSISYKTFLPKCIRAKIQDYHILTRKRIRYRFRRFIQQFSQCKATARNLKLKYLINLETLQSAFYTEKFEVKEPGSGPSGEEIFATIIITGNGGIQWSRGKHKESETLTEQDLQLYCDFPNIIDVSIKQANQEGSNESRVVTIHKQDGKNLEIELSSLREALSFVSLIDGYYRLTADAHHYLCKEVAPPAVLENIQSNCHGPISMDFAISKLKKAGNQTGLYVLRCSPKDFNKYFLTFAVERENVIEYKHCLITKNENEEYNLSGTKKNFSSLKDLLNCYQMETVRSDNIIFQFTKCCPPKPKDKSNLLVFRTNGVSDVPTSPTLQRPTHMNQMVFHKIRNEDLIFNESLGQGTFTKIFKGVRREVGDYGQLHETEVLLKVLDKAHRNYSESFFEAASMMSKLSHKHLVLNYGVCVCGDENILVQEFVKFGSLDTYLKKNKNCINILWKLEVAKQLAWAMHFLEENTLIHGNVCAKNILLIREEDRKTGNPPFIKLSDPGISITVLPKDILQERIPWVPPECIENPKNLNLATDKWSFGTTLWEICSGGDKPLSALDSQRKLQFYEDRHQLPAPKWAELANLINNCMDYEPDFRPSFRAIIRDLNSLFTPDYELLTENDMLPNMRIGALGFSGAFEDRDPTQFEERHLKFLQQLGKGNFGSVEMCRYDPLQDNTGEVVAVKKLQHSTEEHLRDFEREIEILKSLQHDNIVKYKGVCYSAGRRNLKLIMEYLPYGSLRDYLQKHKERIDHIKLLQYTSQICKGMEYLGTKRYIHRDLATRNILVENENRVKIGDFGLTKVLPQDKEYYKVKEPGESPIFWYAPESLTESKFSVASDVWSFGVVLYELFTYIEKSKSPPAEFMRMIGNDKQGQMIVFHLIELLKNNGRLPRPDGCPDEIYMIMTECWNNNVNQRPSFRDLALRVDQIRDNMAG
Description: as §2

U-2 OS cells = assay: Cell cycle analysis by flow cytometry; assay type: cell-based, human; conditions: 1 µM, 24 h
Description: After treatment with the compounds, cells were trypsinized and washed once in PBS. Cells were fixed for 1 h in ice-cold 70% ethanol, then washed once in PBS, centrifuged at 200 g and resuspended in a PBS buffer containing 100 µg/ml RNase A (Thermo Scientific) and 40 µg/ml propidium iodide (Life Technologies). DNA content was determined using a flow cytometer Attune^TM NxT (Thermofisher) and ten thousand events were collected in each run. The data were analysed using FCS Express 7 Pro software (De Novo).

COc1ccc2[nH]c3c(=O)[nH]c4ccc(O)cc4c3c2c1 [Compound 55, 2-Hydroxy-10-methoxy-5,7-dihydro-6H-indolo[2,3-c]quinolin-6-one]
inhibition at 1 µM (TESK1): 15% | inhibition at 1 µM (MYO3B (MYO3 beta)): 53% | inhibition at 1 µM (WEE1): 18% | inhibition at 1 µM (DDR2): 3% | inhibition at 1 µM (CDK13/cyclin K): 17% | inhibition at 1 µM (TEK (TIE2) R849W): 11% | inhibition at 1 µM (MYLK4): 111% | inhibition at 1 µM (ANKK1): 90% | inhibition at 1 µM (MASTL): 50% | inhibition at 1 µM (ADCK3): 60% | inhibition at 1 µM (EGFR (ErbB1) d746-750): 34% | inhibition at 1 µM (FGFR1 V561M): 60% | inhibition at 1 µM (ULK1): 31% | inhibition at 1 µM (DDR2 N456S): 41% | inhibition at 1 µM (KIT D816V): 77% | inhibition at 1 µM (ERN2): 8% | inhibition at 1 µM (TEK (TIE2) Y1108F): 6% | inhibition at 1 µM (CDK11/cyclin C): 37% | inhibition at 1 µM (CDK3/cyclin E1): 50% | inhibition at 1 µM (ACVR1 (ALK2) R206H): 14% | inhibition at 1 µM (RET G691S): 91% | inhibition at 1 µM (GAK): 90% | inhibition at 1 µM (BMPR1B (ALK6)): 8% | inhibition at 1 µM (AAK1): 97% | inhibition at 1 µM (NLK): 15% | inhibition at 1 µM (TGFBR1 (ALK5)): 10% | inhibition at 1 µM (ABL1 F317I): 14% | inhibition at 1 µM (MAPK1 (ERK2)): 19% | inhibition at 1 µM (DCAMKL2 (DCK2)): 6% | inhibition at 1 µM (RET S891A): 96% | inhibition at 1 µM (EGFR (ErbB1) L858R): -1% | inhibition at 1 µM (ERBB2 (HER2)): 2% | inhibition at 1 µM (CSNK2A1 (CK2 alpha 1)): 14% | inhibition at 1 µM (JAK2): 54% | melting point: 202 to 205 °C | % of cycling cells G2/M (U-2 OS cells; DMSO control 6%): 20% | % of cycling cells S (U-2 OS cells; DMSO control 44%): 44% | % of cycling cells G1 (U-2 OS cells; DMSO control 50%): 36%
